From ChEMBL document CHEMBL1782045, “Discovery, synthesis, and investigation of the antitumor activity of novel piperazinylpyrimidine derivatives” (Eur J Med Chem, 2011) come the findings set out here.

Assay [1] addresses T1, Hepatocyte growth factor receptor (Homo sapiens, UniProt P08581).
Description: Binding affinity to human unphosphorylated c-MET
Assay [2] has as its target T1, Hepatocyte growth factor receptor. This is another data set of the same source.
Description: Binding affinity to human phosphorylated c-MET

T1 sequence (P08581 whole entry): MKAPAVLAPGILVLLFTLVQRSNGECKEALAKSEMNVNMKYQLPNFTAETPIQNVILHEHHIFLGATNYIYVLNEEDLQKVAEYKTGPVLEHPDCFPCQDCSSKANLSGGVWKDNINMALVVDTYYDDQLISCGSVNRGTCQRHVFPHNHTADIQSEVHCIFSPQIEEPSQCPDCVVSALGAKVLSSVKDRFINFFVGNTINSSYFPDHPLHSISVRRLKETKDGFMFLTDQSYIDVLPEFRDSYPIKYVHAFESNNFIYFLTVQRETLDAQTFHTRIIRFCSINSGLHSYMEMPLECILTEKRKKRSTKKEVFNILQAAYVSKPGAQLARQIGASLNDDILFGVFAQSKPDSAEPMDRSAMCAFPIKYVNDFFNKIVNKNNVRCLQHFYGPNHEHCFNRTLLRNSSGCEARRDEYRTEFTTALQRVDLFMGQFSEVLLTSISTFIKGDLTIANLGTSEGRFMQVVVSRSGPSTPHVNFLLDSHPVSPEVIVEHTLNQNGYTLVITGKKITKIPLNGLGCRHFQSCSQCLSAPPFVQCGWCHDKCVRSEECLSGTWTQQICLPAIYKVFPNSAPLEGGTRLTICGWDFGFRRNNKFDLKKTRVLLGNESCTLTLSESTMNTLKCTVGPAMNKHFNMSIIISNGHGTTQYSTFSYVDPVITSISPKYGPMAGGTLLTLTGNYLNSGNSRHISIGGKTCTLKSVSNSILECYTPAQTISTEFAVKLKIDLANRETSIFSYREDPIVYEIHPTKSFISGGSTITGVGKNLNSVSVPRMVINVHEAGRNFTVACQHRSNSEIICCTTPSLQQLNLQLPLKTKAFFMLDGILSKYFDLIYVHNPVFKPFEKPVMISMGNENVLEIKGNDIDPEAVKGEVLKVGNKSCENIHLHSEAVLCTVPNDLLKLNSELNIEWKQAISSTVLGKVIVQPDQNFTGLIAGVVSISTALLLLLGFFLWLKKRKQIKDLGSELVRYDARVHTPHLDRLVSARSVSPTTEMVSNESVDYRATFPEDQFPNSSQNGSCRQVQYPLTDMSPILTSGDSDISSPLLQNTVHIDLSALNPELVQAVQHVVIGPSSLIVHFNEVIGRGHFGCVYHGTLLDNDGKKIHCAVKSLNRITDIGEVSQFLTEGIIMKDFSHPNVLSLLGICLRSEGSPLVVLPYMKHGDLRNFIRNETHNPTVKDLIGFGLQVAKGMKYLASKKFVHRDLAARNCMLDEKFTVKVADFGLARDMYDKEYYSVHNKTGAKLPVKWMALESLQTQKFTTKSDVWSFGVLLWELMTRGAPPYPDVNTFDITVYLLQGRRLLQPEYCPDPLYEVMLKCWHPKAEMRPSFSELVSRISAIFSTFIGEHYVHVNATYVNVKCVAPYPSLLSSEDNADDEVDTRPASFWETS

As usually defined, the Kd is the constant that tells how readily two partners part at equilibrium. Take `CN(C[C@@H]1COCCO1)S(=O)(=O)Nc1ccc2ccc3ncc(-c4cnn(C)c4)cc3c(=O)c2c1` [MK-2461]: the dissociation constant Kd in assay [1] was 27.2 nM; in assay [2], 4.4 nM.
